From patent US6506737B1, “Antimicrobial phosphonium and sulfonium polyhalide compositions” (Ecolab, Inc., priority 2000, dated 2003)

Tests used:
[1] = system: S. aureus; experiment: Biocidal efficacy, log reduction of S. aureus (Table 2); assay type: cell-based, Staphylococcus aureus; conditions: total active 0.12-0.89 mmole/liter as listed per composition; for Log Reduction (S. aureus) (30 seconds): 30 seconds exposure; for Log Reduction (S. aureus) (60 seconds): 60 seconds exposure
[2] = system: Staphylococcus aureus (ATCC 6538); experiment: Antimicrobial efficacy, log reduction at 12 grams per gallon in sterile deionized water (Table 3); assay type: cell-based; conditions: ambient temperature
Description: (§1) A 4% solution of trimethyl sulfonium triiodide and a solution of 20% hexadecyl tributyl phosphonium diiodochloride were tested at a concentration of 12 grams per gallon in sterile deionized water against Staphylococcus aureus (ATCC 6538).

[3] = pH of the test solution (Table 3); assay type: physicochemical; conditions: test substance at 12 grams per gallon in sterile deionized water
Description: as §1

SMILES	Log Reduction (S. aureus) (30 seconds) [1]	Log Reduction (S. aureus) (60 seconds) [1]	Log Reduction ([2]; exposure time 15 seconds)	Log Reduction ([2]; exposure time 30 seconds)	Log Reduction ([2]; exposure time 5 minutes, listed as 20% hexadecyl tributyl phosphonium diiodochloride)	pH [3]	Log Reduction ([2]; exposure time 30 seconds, listed as 4% trimethyl sulfonium triiodide)	Log Reduction ([2]; exposure time 5 minutes)
C[N+](C)(C)CCO.Cl[I-]I [choline chloro diiodide]	>6.9	>6.9	–	–	–	–	–	–
CCCC[N+](CCCC)(CCCC)CCCC.Cl[I-]I [tetrabutyl ammonium chloro diiodide]	>6.4	>6.4	–	–	–	–	–	–
C[N+](C)(C)C.Cl[I-]I [tetramethyl ammonium chloro diiodide]	4.0	>6.8	–	–	–	–	–	–
CCCCCCCCCCCCCCCC[P+](CCCC)(CCCC)CCCC.Cl[I-]I [tributyl hexadecyl phosphonium chloro diiodide]	5.0	6.2	3.74	4.98	6.21	4.61	–	–
C[S+](C)C.I[I-]I [trimethyl sulfonium triiodide]	>7.0	>7.0	4.67	–	–	2.52	>6.95	>6.95
